pIC50: −log10 of the molar value.
Experiments:
Mus musculus [1] = species: Mus musculus; assay: animal or person; format: functional; details: po
Description: In vivo inhibitory activity against mouse hepatic cholesterol synthesis administered orally at 24 mpk

Mus musculus [2] = assay: In vivo inhibitory activity against mouse hepatic cholesterol synthesis administered orally at 40 mpk; format: functional; details: po
Mus musculus [3] = assay: In vivo inhibitory activity against mouse hepatic cholesterol synthesis administered subcutaneously; format: functional; details: sc
Squalene synthase = target: T1, Squalene synthase (Rattus norvegicus, UniProt Q02769); assay: In vitro inhibitory activity against rat squalene synthase
T1 sequence (Q02769 whole entry): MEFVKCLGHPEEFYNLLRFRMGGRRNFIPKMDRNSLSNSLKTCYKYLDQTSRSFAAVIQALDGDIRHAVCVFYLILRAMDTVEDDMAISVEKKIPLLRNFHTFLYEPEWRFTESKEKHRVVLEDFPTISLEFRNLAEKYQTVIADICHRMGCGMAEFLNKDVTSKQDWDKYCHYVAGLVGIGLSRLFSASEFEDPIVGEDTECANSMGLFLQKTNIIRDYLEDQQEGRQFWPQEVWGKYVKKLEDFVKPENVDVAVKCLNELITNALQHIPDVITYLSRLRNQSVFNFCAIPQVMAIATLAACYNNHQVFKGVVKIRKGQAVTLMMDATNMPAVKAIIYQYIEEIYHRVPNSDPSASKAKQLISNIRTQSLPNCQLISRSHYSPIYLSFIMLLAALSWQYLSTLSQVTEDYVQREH

Mus musculus [4] = assay: In vivo inhibitory activity against mouse hepatic cholesterol synthesis administered orally at 48 mpk; format: functional; details: po

Compound | inhibition in vivo at 24 mg/kg (Mus musculus [1]) [%] | inhibition in vivo at 40 mg/kg (Mus musculus [2]) [%] | ED50 (Mus musculus [3]) [mg/kg] | pIC50 (Squalene synthase) | inhibition in vivo at 48 mg/kg (Mus musculus [4]) [%]
C=C(CCC12OC(C(=O)O)C(O)(C(=O)O)C(C(=O)O)(O1)[C@H](O)[C@H]2O)[C@@H](OC(C)=O)[C@H](C)Cc1ccccc1 (stereo partly drawn) | 34 |  |  |  | 
C=C(CCC12OC(C(=O)O)C(O)(C(=O)O)C(C(=O)O)(O1)[C@H](OC(=O)/C=C/[C@@H](C)C[C@@H](C)CC)[C@H]2O)[C@@H](OC(C)=O)[C@H](C)Cc1ccccc1 (stereo partly drawn) [ZARAGOZIC ACID A] |  | 20 | 0.2 |  | 
CCCCCCCCCCCCCCCCC(C(=O)O)C(O)(CC(=O)O)C(=O)O (stereo not drawn) |  |  |  | 5.05 | 0
C/C(=C\C(C)Cc1ccccc1)CCCCCC(C(=O)O)C(O)(CC(=O)O)C(=O)O (stereo not drawn) |  |  | 15 | 6.59 | 0
